# Where a SMILES comes first, the peptide text is derived from it. Side-chain parts run from the residue outwards. The star is where a group is joined. Cbz = O=C(OCc1ccccc1)*; Boc = CC(C)(C)OC(=O)*
# How the values were obtained:
# [1] = test system: MDA-MB-231; assay: Cytotoxicity against human MDA-MB-231 cells assessed as cell survival at 20 ug/ml relative to control; assay type: functional; details: read-out: Survival
# [2] = Cytotoxicity against HEK293 cells assessed as cell survival at 20 ug/ml after 6 hrs by SRB assay relative to control; assay type: cell-based; details: human, read-out: Survival
# [3] = test system: MCF7; assay: Cytotoxicity against human MCF7 cells assessed as cell survival at 20 ug/ml relative to control; assay type: functional; details: read-out: Survival
# [4] = test system: HEK293; assay: Inhibition of TNF-alpha activated nuclear factor-kappa B in HEK293 cells at 20 ug/ml after 6 hrs by luciferase reporter gene assay relative to control; assay type: cell-based; details: Homo sapiens
# [5] = biological target: NAD(P)H dehydrogenase [quinone] 1 (Mus musculus) (UniProt Q64669); assay: Activation of Quinone reductase-1 in mouse Hepa-1c1c7 cells assessed as induction ratio at 20 ug/ml after 48 hrs by MTT assay; assay type: cell-based
# [6] = Inhibition of TNF-alpha activated nuclear factor-kappa B in HEK293 cells after 6 hrs by luciferase reporter gene assay; assay type: cell-based; details: Homo sapiens, HEK293, 6 h
# Chain of NAD(P)H dehydrogenase [quinone] 1 (Mus musculus) (Q64669 whole entry): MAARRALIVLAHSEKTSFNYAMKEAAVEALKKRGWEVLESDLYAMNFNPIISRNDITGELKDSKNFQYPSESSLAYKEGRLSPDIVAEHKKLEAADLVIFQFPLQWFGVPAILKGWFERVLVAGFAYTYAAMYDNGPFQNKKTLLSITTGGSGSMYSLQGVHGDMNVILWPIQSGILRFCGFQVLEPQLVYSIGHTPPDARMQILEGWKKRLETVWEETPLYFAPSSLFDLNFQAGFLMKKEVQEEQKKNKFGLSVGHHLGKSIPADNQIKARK
Compound,viability at 20 µg/mL [1],"viability at 6 h, 20 ug/ml [2]",viability at 20 µg/mL [3],inhibition [4],Ratio [5],IC50 [6]
C[C@H](NC(=O)OC(C)(C)C)C(=O)n1nnc2ccccc21,90.9%,122%,75.8%,35.7%,1.2,–
O=C(N[C@@H](Cc1ccccc1)C(=O)N[C@H](CO)C(=O)O)OCc1ccccc1,97.4%,122%,69.5%,24.5%,1.5,–
CC(C)(C)OC(=O)NCC(=O)n1nnc2ccccc21,108%,110%,90.3%,41.3%,1.1,–
C[C@H](NC(=O)OCc1ccccc1)C(=O)N[C@@H](Cc1ccccc1)C(=O)n1nnc2ccccc21,91.4%,104%,59.3%,49.6%,1.2,–
CC(C)(C)OC(=O)NCC(=O)OC[C@@H](NC(=O)[C@H](Cc1ccccc1)NC(=O)OCc1ccccc1)C(=O)O,106%,121%,126%,10.1%,1.1,–
C[C@H](O)[C@H](NC(=O)[C@H](Cc1ccccc1)NC(=O)OCc1ccccc1)C(=O)O,104%,122%,58.3%,55.7%,2.2,–
C[C@H](NC(=O)OCc1ccccc1)C(=O)N[C@H](CO)C(=O)O,94.9%,123%,66.3%,10.7%,0.9,–
C[C@H](NC(=O)OCc1ccccc1)C(=O)N[C@H](C(=O)O)[C@H](C)O,92.8%,116%,106%,–,1.7,–
C[C@H](OC(=O)CNC(=O)OC(C)(C)C)[C@H](NC(=O)[C@H](Cc1ccccc1)NC(=O)OCc1ccccc1)C(=O)O,83.9%,122%,114%,-4.1%,0.9,–
O=C(N[C@@H](Cc1ccccc1)C(=O)N[C@@H](CO)C(=O)O)OCc1ccccc1,99.9%,119%,75.8%,18.3%,1.2,–
c1ccc2[nH]nnc2c1 [BENZOTRIAZOLE],103%,99.7%,104%,3.6%,1.2,–
C[C@H](NC(=O)OCc1ccccc1)C(=O)N[C@@H](COC(=O)CNC(=O)OC(C)(C)C)C(=O)O (Cbz-Ala-Ser([Gly-Boc])-OH),104%,108%,110%,22%,2.5,–
O=C(N[C@@H](Cc1ccccc1)C(=O)NCC(=O)n1nnc2ccccc21)OCc1ccccc1,106%,96.9%,93.2%,12.2%,0.9,–
Cc1ccc(S(=O)(=O)N[C@@H](Cc2ccccc2)C(=O)CCl)cc1 [TPCK],–,–,–,–,–,5.05 µM
C[C@H](NC(=O)OCc1ccccc1)C(=O)N[C@@H](CO)C(=O)O,98.1%,110%,78.6%,13.9%,1.1,–
CC(C)(C)OC(=O)NCC(=O)OC[C@H](NC(=O)[C@@H](N)Cc1ccccc1)C(=O)O (H-Phe-Ser([Gly-Boc])-OH),99.4%,121%,104%,14.8%,2.4,–
C[C@H](NC(=O)OCc1ccccc1)C(=O)N[C@@H](Cc1ccccc1)C(=O)O,98.9%,113%,63.9%,18.7%,1.1,–
C[C@H](OC(=O)CNC(=O)OC(C)(C)C)[C@H](NC(=O)[C@@H](N)Cc1ccccc1)C(=O)O,93.9%,103%,93.8%,26.3%,1,–
O=C(N[C@@H](Cc1ccccc1)C(=O)n1nnc2ccccc21)OCc1ccccc1,98%,104%,74.2%,–,1.3,–
C[C@H](NC(=O)OCc1ccccc1)C(=O)n1nnc2ccccc21,106%,126%,104%,32.6%,1,–
CC(C)(C)OC(=O)NCC(=O)OC[C@H](NC(=O)[C@H](Cc1ccccc1)NC(=O)OCc1ccccc1)C(=O)O,92.1%,136%,142%,-5.2%,1.1,–
